In brackets after ≈: the same amount, converted by molar mass. Several values for one entry are separate records, joined by “and”; a condition that tells them apart may be missing. Identical values can stand only once. Values belong to the compound of their own block, whether it stands above or below them.
Columns and labels:
Experiment in all cases: ≥ marks a high value that may be exact or a test limit, other limits are often not marked, values filed in µg/mL are converted to µM
[1] = system: Acinetobacter baumannii ATCC BAA-747
[2] = system: Bacillus subtilis IFO 3134
[3] = system: Enterobacter cloacae BCRC 10401
[4] = system: Enterococcus faecium ATCC 700221
[5] = system: Escherichia coli ATCC 25922
[6] = system: Escherichia coli BCRC 10675
[7] = system: Escherichia coli IFO 12734
[8] = system: Klebsiella aerogenes BCRC 10370
[9] = system: Klebsiella oxytoca BCRC 13985
[10] = system: Klebsiella pneumoniae ATCC 700603
Lactococcus garvieae = system: Lactococcus garvieae
[11] = system: Listeria monocytogenes BCRC 14845
[12] = system: Pseudomonas aeruginosa ATCC 27583
[13] = system: Pseudomonas aeruginosa BCRC 10944
[14] = system: Pseudomonas aeruginosa IFO 12582
[15] = system: Staphylococcus aureus ATCC 43300
[16] = system: Staphylococcus aureus BCRC 10780
[17] = system: Staphylococcus aureus BCRC 10781
[18] = system: Staphylococcus aureus IFO 12732
[19] = system: Staphylococcus xylosus BCRC 12930
[20] = system: Streptococcus equinus BCRC 14729
Streptococcus iniae = system: Streptococcus iniae
[21] = system: Vibrio alginolyticus BCRC 12829
Vibrio alginolyticus = system: Vibrio alginolyticus
[22] = system: Vibrio anguillarum serotype O1
Vibrio harveyi = system: Vibrio harveyi
[23] = system: Vibrio parahaemolyticus BCRC 10806
Vibrio parahaemolyticus = system: Vibrio parahaemolyticus
[24] = system: Yersinia enterocolitica BCRC 13999
Aeromonas hydrophila 12 = system: Aeromonas hydrophila 12
[25] = system: Aeromonas intestinalis 58209
[26] = system: Aeromonas sobria CR79-1-1
[27] = system: Escherichia coli DH5alpha
[28] = system: Flavobacterium columnare G4
[29] = system: Pseudomonas fluorescens 56-12-10
[30] = system: Pseudomonas fluorescens biotype I W81-11
[31] = system: Vibrio anguillarum E-3-11
[32] = system: Vibrio anguillarum SGL 8542
[33] = system: Yersinia ruckeri SC90-2-4
[34] = system: Bacillus subtilis ATCC 62037
[35] = system: Candida albicans ATCC 10231
[36] = system: Cryptococcus neoformans ATCC 34881
[37] = system: Escherichia coli ATCC 27325
[38] = system: Pseudomonas putida ATCC 17426
[39] = system: Saccharomyces cerevisiae ATCC 44774
[40] = system: Salmonella enterica subsp. enterica serovar Enteritidis ATCC 13076
[41] = system: Staphylococcus aureus ATCC 15752
[42] = system: Streptococcus mutans ATCC 25175
Pseudomonas aeruginosa = system: Pseudomonas aeruginosa
[43] = system: Staphylococcus aureus ATCC 6538P
[44] = system: Staphylococcus aureus KO-4
[45] = system: Trichophyton mentagrophytes IFO 5466
[46] = system: Trypanosoma brucei brucei GUT Tat3.1

MIC [1]: 8 µM (≈ 20 µg/mL)
MIC [2]: 9.98 µM (≈ 25 µg/mL)
MIC [3]: 12.8 µM (≈ 32 µg/mL)
MIC [4]: 16 µM (≈ 40.1 µg/mL)
MIC [5]: 8 µM (≈ 20 µg/mL)
MIC [6]: 25.5 µM (≈ 64 µg/mL)
MIC [7]: 4.79 µM (≈ 12 µg/mL)
MIC [8]: ≥ 51.1 µM
MIC [9]: 25.5 µM (≈ 64 µg/mL)
MIC [10]: 64 µM (≈ 160 µg/mL)
MIC (Lactococcus garvieae): 12.8 µM (≈ 32 µg/mL)
MIC [11]: ≥ 51.1 µM
MIC [12]: ≥ 32 µM
MIC [13]: 25.5 µM (≈ 64 µg/mL)
MIC [14]: 9.98 µM (≈ 25 µg/mL)
MIC [15]: > 128 µM
MIC [16]: ≥ 51.1 µM
MIC [17]: ≥ 51.1 µM
MIC [18]: 9.98 µM (≈ 25 µg/mL)
MIC [19]: ≥ 51.1 µM
MIC [20]: ≥ 51.1 µM
MIC (Streptococcus iniae): ≥ 51.1 µM
MIC [21]: ≥ 51.1 µM
MIC (Vibrio alginolyticus): ≥ 51.1 µM
MIC [22]: 3.19 µM (≈ 8 µg/mL)
MIC (Vibrio harveyi): ≥ 51.1 µM
MIC [24]: ≥ 51.1 µM
Compound: CC[C@H](C)[C@H](NC(=O)CN)C(=O)NCC(=O)N[C@@H](CCCCN)C(=O)N[C@@H](Cc1ccccc1)C(=O)N[C@@H](CC(C)C)C(=O)N[C@@H](Cc1cnc[nH]1)C(=O)N[C@@H](CO)C(=O)N[C@@H](C)C(=O)N[C@@H](CCCCN)C(=O)N[C@@H](CCCCN)C(=O)N[C@@H](Cc1c[nH]c2ccccc12)C(=O)NCC(=O)N[C@@H](CCCCN)C(=O)N[C@@H](C)C(=O)N[C@@H](Cc1ccccc1)C(=O)N[C@H](C(=O)NCC(=O)N[C@@H](CCC(=O)O)C(=O)N[C@H](C(=O)N[C@@H](CCSC)C(=O)N[C@@H](CC(N)=O)C(=O)N[C@@H](CO)C(N)=O)[C@@H](C)CC)C(C)C [GIGKFLHSAKKWGKAFVGEIMNS]
MIC [23]: ≥ 51.1 µM
MIC (Vibrio parahaemolyticus): 1.6 µM (≈ 4 µg/mL)

MIC (Aeromonas hydrophila 12): ≥ 160 µM
MIC [25]: 14.1 µM (≈ 35.5 µg/mL)
MIC [26]: 14.1 µM (≈ 35.5 µg/mL)
MIC [27]: 7.07 µM (≈ 17.7 µg/mL)
MIC [28]: ≥ 56.6 µM
MIC [29]: 14.1 µM (≈ 35.5 µg/mL)
MIC [30]: 14.1 µM (≈ 35.5 µg/mL)
MIC [31]: 28.3 µM (≈ 71 µg/mL)
MIC [32]: ≥ 56.6 µM
MIC [33]: 28.3 µM (≈ 71 µg/mL)
Compound: CC[C@H](C)[C@H](N)C(=O)N[C@@H](Cc1ccccc1)C(=O)N[C@@H](Cc1cnc[nH]1)C(=O)N[C@@H](Cc1cnc[nH]1)C(=O)N[C@H](C(=O)N[C@@H](Cc1ccccc1)C(=O)N[C@@H](CCCCN)C(=O)NCC(=O)N[C@H](C(=O)N[C@H](C(=O)N[C@@H](Cc1cnc[nH]1)C(=O)N[C@H](C(=O)NCC(=O)N[C@@H](CCCCN)C(=O)N[C@H](C(=O)N[C@H](C(=O)N[C@@H](Cc1cnc[nH]1)C(=O)N[C@@H](CCCN=C(N)N)C(=O)N[C@@H](CC(C)C)C(=O)N[C@H](C(=O)N[C@H](C(=O)NCC(N)=O)[C@@H](C)O)C(C)C)[C@@H](C)CC)[C@@H](C)O)C(C)C)C(C)C)[C@@H](C)CC)[C@@H](C)CC [IFHHIFKGIVHVGKTIHRLVTG]

MIC [34]: ≥ 44.4 µM
MIC [35]: > 88.8 µM
MIC [36]: ≥ 88.8 µM
MIC [37]: ≥ 88.8 µM
MIC [38]: ≥ 44.4 µM
MIC [39]: ≥ 88.8 µM
MIC [40]: ≥ 88.8 µM
MIC [41]: ≥ 88.8 µM
MIC [42]: ≥ 88.8 µM
Compound: CC(C)[C@H](NC(=O)[C@H](CCCCN)NC(=O)CNC(=O)CNC(=O)[C@H](CCC(N)=O)NC(=O)[C@H](CCCCN)NC(=O)CNC(=O)[C@H](CCCN=C(N)N)NC(=O)CNC(=O)[C@@H](N)CCCCN)C(=O)N[C@@H](CCCN=C(N)N)C(=O)N[C@@H](C)C(=O)N[C@@H](CCCCN)C(=O)N[C@@H](C)C(=O)O [KGRGKQGGKVRAKA]

MIC (Pseudomonas aeruginosa): 669 µM (≈ 799 µg/mL)
MIC [43]: 0.837 µM and 1.67 µM
MIC [44]: ≥ 502 µM
MIC [45]: ≥ 41.8 µM
MIC [46]: ≥ 500 µM
Compound: CC[C@H](C)[C@H](NC(=O)[C@H](CCCN=C(N)N)NC(=O)[C@H](CC(C)C)NC(=O)[C@H](CCCN=C(N)N)NC(=O)[C@H](CC(C)C)NC(=O)[C@@H](N)CCCN=C(N)N)C(=O)NCC(=O)N[C@@H](CCCN=C(N)N)C(=O)N[C@@H](CCCN=C(N)N)C(N)=O [RLRLRIGRR]
